# Assay results: paper PMC8491550 (Journal of Medicinal Chemistry, 2021)
# “Also recorded” adds a separate entry of the source. Where two headings read alike, the source gives them in different places.
# Key:
# [1] = system: SARS-CoV-2 (USA_WA01/2020) in Vero E6 cells; assay: Antiviral assay in SARS-CoV-2-infected Vero E6 cells; type: cell-based; conditions: read-out: Antiviral EC50, MOI 0.01, 72 h, cell proliferation
# [2] = target: T1, SARS-CoV-2 M^pro (Severe acute respiratory syndrome coronavirus 2, UniProt P0DTD1); assay: Preincubation dilution experiment; type: biochemical
# [3] = target: T1, SARS-CoV-2 M^pro; assay: Steady-state enzyme kinetics, inhibition mechanism; type: biochemical
# [4] = system: SARS-CoV-2 USA-WA1/2020 in human iPSC-derived lung organoids
# [5] = 10 μM preincubation 30 min, 10× dilution
compound,measurement,setting,value
"2-(4-Chlorophenyl)benzo[d][1,2]selenazol-3(2H)-one [Compound E15]",EC50,[1],11.2 ± 1.3 µM
"O=c1c2ccccc2[se]n1-c1ccccc1 [Compound E01, 2-Phenylbenzo[d][1,2]selenazol-3(2H)-one, reference compound]",type of inhibition from preincubation dilution,[2],reversible covalent inhibitor
same,mechanism of inhibition,[3],likely competitive inhibitors
"O=c1c2ccccc2[se]n1-c1ccc(C(F)(F)F)cc1 [Compound E04, 2-(4-(Trifluoromethyl)phenyl)benzo[d][1,2]selenazol-3(2H)-one]",type of inhibition from preincubation dilution,[2]; [5],rapidly reversible inhibitor
same,mechanism of inhibition,"[3]; 0.5-10 μM inhibitor, 1.5-30 μM substrate, global fit to mixed model",likely competitive inhibitors
"COc1ccc(Cn2[se]c3ccccc3c2=O)c(OC)c1 [Compound E07, 2-(2,4-Dimethoxybenzyl)benzo[d][1,2]selenazol-3(2H)-one]",type of inhibition from preincubation dilution,[2]; [5],reversible covalent inhibitor
"O=c1c2ccccc2[se]n1-c1cccc(Cl)c1 [Compound E19, 2-(3-Chlorophenyl)benzo[d][1,2]selenazol-3(2H)-one]",type of inhibition from preincubation dilution,[2]; [5],rapidly reversible inhibitor
"O=c1c2ccccc2[se]n1-c1cc(Cl)cc(Cl)c1 [Compound E20, 2-(3,5-Dichlorophenyl)benzo[d][1,2]selenazol-3(2H)-one]",type of inhibition from preincubation dilution,[2]; [5],reversible covalent inhibitor
"O=c1c2ccccc2[se]n1-c1cccc(C(F)(F)F)c1 [Compound E24, 2-(3-(Trifluoromethyl)phenyl)benzo[d][1,2]selenazol-3(2H)-one]","reduction of viral RNA levels, intracellular fraction",[4],~50%
same,"reduction of viral RNA levels, supernatant fraction",[4],~50%
same,toxicity toward the organoids,"[4]; 5 μM, 72 h",no observable toxicity
"N#Cc1cccc(-n2[se]c3ccccc3c2=O)c1 [Compound E25, 3-(3-Oxobenzo[d][1,2]selenazol-2(3H)-yl)benzonitrile]",type of inhibition from preincubation dilution,[2]; [5],some recovery of the enzymatic activity but not a complete recovery; also recorded: reversible covalent inhibitor
